Key:
[1] = test system: homologous PCA (passive cutaneous anaphlaxis) of rats; assay: Homologous PCA (passive cutaneous anaphylaxis) test of rats for 48 hours, oral (antiallergic activity); format: in vivo, Wistar male rats; details: Rattus norvegicus; for minimal effective dose: minimum dosage with positive case in at least one of three rats, read-out: MED (minimum effective dosage), PCA inhibition; for responders at 0.1 mg/kg / responders at 1 mg/kg / responders at 10 mg/kg / responders at 100 mg/kg / responders at 0.01 mg/kg: po, positive = inhibition rate 50% or higher, read-out: Number of positive zooids in one group of 3 zooids (converted); for responders at 0.1 mg/kg: dosage 0.1 mg/kg; for responders at 1 mg/kg: dosage 1 mg/kg; for responders at 10 mg/kg: dosage 10 mg/kg; for responders at 100 mg/kg: dosage 100 mg/kg; for responders at 0.01 mg/kg: dosage 0.01 mg/kg
Experimental: Antiallergic activity was investigated by a homologous PCA (passive cutaneous anaphlaxis) of rats for 48 hours, where Wistar male rats having body weights of 180 to 220 g were used for sampling of antiserum and Wistar male rats having body weights of 120 to 140 g were used for the PCA test.
Anti-egg white albumin (EWA) rat serum was prepared according to Stotland and Share's method [Canad. J. Physiol. Pharmacol. 52, 1114 (1974)]. That is, 1 mg of EWA was mixed with 20 mg of aluminum hydroxide gel and 0.5 ml of mixed vaccine of pertussis, diphtheria and tetanus, and the mixture was subcutaneously administered in four portions into rat's footpad. After 14 days, blood was sampled from the carotid artery, and the serum was separated from the sampled blood, and preserved under freezing at -80° C. The potency of the antiserumin in the homologous PCA for 48 hours was 1:32.
Groups each consisting of 3 rats were used, and 0.05 ml of anti-EWA rat serum diluted with a physiological saline solution to 8 times as much was incutaneously injected each at two positions of depilated back to make the animals passively sensitised. After 47 hours, the compound of the present invention, or its solution (physiological saline solution or CMC solution) was orally administered. One hour thereafter, 0.5 ml/100 g of 1% Evan's blue physiological saline solution containing 2 mg of the antigen EWA was administered into the tail vein, and 30 minutes thereafter, the animals were sacrificed by exsanguination. Then, the skins were stripped and the amount of leaked pigment at the blue-dyed parts was measured according to the Katayama et al method [Microbiol. Immunol. 22, 89 (1978)]. That is, the blue-dyed parts were cut out by scissors, and placed in test tubes containing 1 ml of 1N KOH and incubated at 37° C. for 24 hours. Then, 9 ml of a mixture of 0.6N phosphoric acid and acetone (5:13) was added thereto, and the mixture was shaked and centrifuged at 2,500 rpm for 10 minutes. Absorbancy of the supernatant at […] was measured, and the amount of leaked pigment was quantitatively determined by the calibration curve prepared in advance. An average of measurements at the two position was made a value for one zooid, and inhibition rate for the individual zooid was calculated by the following formula: [formula]

dd, male mice = format: in vivo; details: mice, mortality 7 days after administration
Experimental: Groups each consisting of 3 dd, male mice having body weights of 20±1 g were used, and the compound of the present invention was administered orally (po: 300 mg/kg) or intraperitoneally (ip: 100 mg/kg).

Rat carageenin paw edema = assay: Carageenin paw edema test (antiinflammatory activity); format: in vivo, Wistar male rats; details: average value in one group of 3 rats, 100 mg/kg oral administration
Experimental: Antiinflammatory activity was examined according to Rat carageenin paw edema [J. Pathol. 104, 15-29 (1971)], Groups each consisting of three Wistar male rats weighing 150 g were used. The test compound was suspended in 0.3% aqueous CMC solution and the suspension was given orally. Sixty minutes later, 0.1 ml of 0.1% carageenin was subcutaneously injected in a hind paw to form carageenin paw edema.
The volume of paw was measured before the administration and 3 hours after the administration of carageenin with plethysmometer.
The ratio of the volume 3 hours after the administration to that before the administration of carageenin was calculated and each ratio is compared with the ratio of control group (0.3% CMC was administered) to give the edema inhibiting percentage.

CN(C)CCCN=C1c2ccccc2COc2ccc(CC(=O)O)cc21 [Compound 41, 11-(3-Dimethylaminopropyl)imino-6,11-dihydrodibenz[b,e]oxepin-2-acetic acid]
minimal effective dose [1]: 1 mg/kg | responders at 0.1 mg/kg [1]: 0% | responders at 1 mg/kg [1]: 33.3% | responders at 10 mg/kg [1]: 66.7% | responders at 100 mg/kg [1]: 100% | Acute toxicity (MLD), ip (dd, male mice): > 100 mg/kg | Acute toxicity (MLD), po (dd, male mice): > 300 mg/kg | Carageenin paw edema inhibiting percentage (Rat carageenin paw edema): 38.7%

CCN(CC)CCN=C1c2ccccc2COc2ccc(CCC(=O)O)cc21 [Compound 43, 3-[11-(2-Diethylaminoethyl)imino-6,11-dihydrodibenz[b,e]oxepin-2-yl]-propionic acid]
minimal effective dose [1]: 10 mg/kg | responders at 0.1 mg/kg [1]: 0% | responders at 1 mg/kg [1]: 0% | responders at 10 mg/kg [1]: 66.7% | responders at 100 mg/kg [1]: 100% | Acute toxicity (MLD), ip (dd, male mice): > 100 mg/kg | Acute toxicity (MLD), po (dd, male mice): > 300 mg/kg

CC(C(=O)O)c1ccc2c(c1)C(=NCCN(C)C)c1ccccc1CO2 (stereo not drawn) [Compound 45, 2-[11-(2-Dimethylaminoethyl)imino-6,11-dihydrodibenz[b,e]oxepin-2-yl]-propionic acid]
minimal effective dose [1]: 1 mg/kg | responders at 0.1 mg/kg [1]: 0% | responders at 1 mg/kg [1]: 66.7% | responders at 10 mg/kg [1]: 100% | responders at 100 mg/kg [1]: 100% | Acute toxicity (MLD), ip (dd, male mice): > 100 mg/kg | Acute toxicity (MLD), po (dd, male mice): > 300 mg/kg | Carageenin paw edema inhibiting percentage (Rat carageenin paw edema): 63.1%

CN(C)CCN=C1c2ccccc2COc2cc(CC(=O)O)ccc21 [Compound 47, 11-(2-Dimethylaminoethyl)imino-6,11-dihydrodibenz[b,e]oxepin-3-acetic acid]
Carageenin paw edema inhibiting percentage (Rat carageenin paw edema): 46.0%

CN(C)CCCN=C1c2ccccc2COc2cc(CC(=O)O)ccc21 [Compound 49, 11-(3-Dimethylaminopropyl)imino-6,11-dihydrodibenz[b,e]oxepin-3-acetic acid]
Carageenin paw edema inhibiting percentage (Rat carageenin paw edema): 24.1%

O=C(O)c1ccc2c(c1)C(=CCCN1CCOCC1)c1ccccc1CO2 [Compound 56, 11-(3-Morpholinopropylidene)-6,11-dihydrodibenz[b,e]-oxepin-2-carboxylic acid]
minimal effective dose [1]: 0.1 mg/kg | responders at 0.01 mg/kg [1]: 0% | responders at 0.1 mg/kg [1]: 33.3% | responders at 1 mg/kg [1]: 100% | responders at 10 mg/kg [1]: 100% | responders at 100 mg/kg [1]: 100% | Acute toxicity (MLD), ip (dd, male mice): > 100 mg/kg | Acute toxicity (MLD), po (dd, male mice): > 300 mg/kg

O=C(O)c1ccc2c(c1)C(=CCCN1CCSCC1)c1ccccc1CO2 [Compound 58, 11-(3-Thiomorpholinopropylidene)-6,11-dihydrodibenz[b,e]oxepin-2-carboxylicacid]
minimal effective dose [1]: 1 mg/kg | responders at 0.1 mg/kg [1]: 0% | responders at 1 mg/kg [1]: 100% | responders at 10 mg/kg [1]: 100% | responders at 100 mg/kg [1]: 100% | Acute toxicity (MLD), ip (dd, male mice): > 100 mg/kg | Acute toxicity (MLD), po (dd, male mice): > 300 mg/kg

CN(C)CC/C=C1/c2ccccc2COc2ccc(/C=C/C(=O)O)cc21 [Compound 60, Trans-3-[11-(3-dimethylaminopropylidene)-6,11-dihydrodibenz[b,e]oxepin-2-yl]-acrylic acid]
minimal effective dose [1]: 0.1 mg/kg | responders at 0.01 mg/kg [1]: 0% | responders at 0.1 mg/kg [1]: 33.3% | responders at 1 mg/kg [1]: 66.7% | responders at 10 mg/kg [1]: 100% | responders at 100 mg/kg [1]: 100% | Acute toxicity (MLD), ip (dd, male mice): > 100 mg/kg | Acute toxicity (MLD), po (dd, male mice): > 300 mg/kg

Reference: patent publication US5116863A, “Dibenz[b,e]oxepin derivative and pharmaceutical compositions thereof” (Kyowa Hakko Kogyo Co., Ltd., priority 1986, dated 1992)
